For assay [1], the target named is T1, myeloperoxidase (Homo sapiens (Human), UniProt P05164). The experiment in a line: MPO Peroxidation Assay (Amplex Red Assay). In kind it is biochemical. The note with it: potency range class. As for the experimental part: MPO Peroxidation Assay (Amplex Red Assay)
MPO peroxidation activity was measured in 100 mM KPi (pH 7.4) by utilizing the non-fluorescent reagent Amplex Red (Invitrogen Cat. #A12222) which can be oxidized to the highly fluorescent resorufin. Amplex Red is oxidized by the peroxidase action of MPO to resorufin. Reactions were carried out in 50 μL total volume by adding a 25 μL mixture of 200 pM myeloperoxidase and 40 nM H2O2(Sigma #349887) to 100 nL inhibitor in 100% DMSO in a 384 well Perkin Elmer Optiplate. Enzyme and compound were preincubated for ten minutes at rt.
After the ten minute preincubation, 25 μL of an Amplex Red mixture containing 200 μM Amplex Red and 10 mM H2O2 was added to the plate. Kinetic determinations were carried out immediately on a Perkin Elmer Envision (15 minute kinetic read, Ex: 535 nm, Em: 590 nm).
IC50 values were calculated by determining the slope of the linear portion of the kinetic trace (180-540 secs), and using that calculated slope to determine % inhibition occurring at each concentration of inhibitor using the following equation:
(§1) [formula] where A=minimal Y value (activity level of inhibited sample), B=maximal Y value (activity level of uninhibited sample), C=Log IC50, D=Hill Slope, x=concentration of inhibitor. MPO Chlorination Assay (APF Assay)

The target in assay [2] is T1, myeloperoxidase. The experiment in a line: MPO Chlorination Assay (APF Assay). In kind it is biochemical. The note with it: potency range class. As for the experimental part:
as §1
MPO chlorination activity was measured in 100 mM KPi (pH 7.4) by utilizing the non-fluorescent reagent Aminophenyl fluorescein (APF, Invitrogen Cat. #A36003). APF is cleaved by (—OCl) to yield the fluorescent compound fluorescein. Reactions were carried out in 50 μL total volume by adding a 25 μL mixture of 200 pM myeloperoxidase and 120 mM NaCl to 100 nL inhibitor in 100% DMSO in a 384 well, non-binding surface clear bottom plate (Corning #3655). Enzyme, inhibitor, and chloride were preincubated for ten minutes at rt.
After the ten minute preincubation, 25 μL of an APF mixture containing […], 120 mM NaCl and 10 μM H2O2 was added to the plate using the internal dispensing system of a Hammatsu FDSS 6000. Kinetic determinations were carried out immediately on the FDSS 6000 (3 minute kinetic read, 1 read every second, ex: 485 nm, em: 535 nm). IC50 values for inhibitors were calculated by taking the slope of the linear portion of the kinetic measurement (20 seconds to ˜80-120 secs). […]
[formula] where A=minimal Y value (activity level of inhibited sample), B=maximal Y value (activity level of uninhibited sample), C=Log IC50, D=Hill Slope, x=concentration of inhibitor.

T1 sequence (P05164 49-745): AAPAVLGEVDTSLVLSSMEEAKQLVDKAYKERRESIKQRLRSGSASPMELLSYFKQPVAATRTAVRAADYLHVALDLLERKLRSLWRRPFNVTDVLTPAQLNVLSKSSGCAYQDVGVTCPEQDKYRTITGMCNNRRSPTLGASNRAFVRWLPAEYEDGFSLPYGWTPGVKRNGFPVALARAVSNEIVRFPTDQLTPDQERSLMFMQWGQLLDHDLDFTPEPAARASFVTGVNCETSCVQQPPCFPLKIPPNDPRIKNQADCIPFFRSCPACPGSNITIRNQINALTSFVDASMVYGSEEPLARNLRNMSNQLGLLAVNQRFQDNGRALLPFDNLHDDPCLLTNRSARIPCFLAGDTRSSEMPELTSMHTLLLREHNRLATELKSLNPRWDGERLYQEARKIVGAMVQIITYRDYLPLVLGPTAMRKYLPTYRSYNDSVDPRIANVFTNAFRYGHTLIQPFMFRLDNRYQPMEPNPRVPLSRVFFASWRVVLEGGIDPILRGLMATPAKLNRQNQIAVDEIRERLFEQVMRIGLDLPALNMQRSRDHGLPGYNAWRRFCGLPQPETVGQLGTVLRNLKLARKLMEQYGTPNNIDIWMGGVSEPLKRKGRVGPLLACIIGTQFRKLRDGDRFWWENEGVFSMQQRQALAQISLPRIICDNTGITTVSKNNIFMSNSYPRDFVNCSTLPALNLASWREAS

With `Nc1cc(C(CCN[C@H]2CC[C@H](c3ccccc3)CC2)c2cn[nH]c2)c2nn[nH]c2n1` (stereo partly drawn) [Example 22, 7-[1-(1H-Pyrazol-4-yl)-3-{[trans-4-phenylcyclohexyl]amino}propyl]-3H-[1,2,3]triazolo[4,5-b]pyridin-5-amine], the IC50 lay within 1 to 10 µM at myeloperoxidase [1] and 0.101 to 0.999 µM at myeloperoxidase [2].

`Nc1cc(C(CCN[C@H]2CC[C@H](c3ccccc3)CC2)c2cnn(C3CCCC3)c2)c2nn[nH]c2n1` (stereo partly drawn) [Example 23, 7-[1-(1-Cyclopentyl-1H-pyrazol-4-yl)-3-{[trans-4-phenylcyclohexyl]amino}propyl]-3H-[1,2,3]triazolo[4,5-b]pyridin-5-amine]: the IC50 lay in the range of 1 to 10 µM against myeloperoxidase [1] and 0.001 to 0.1 µM against myeloperoxidase [2].

In the case of `Nc1cc(C(CCN[C@H]2CC[C@H](c3ccccc3)CC2)c2cnn(Cc3cccc4ccccc34)c2)c2nn[nH]c2n1` (stereo partly drawn) [Example 24, 7-{1-[1-(Naphthalen-1-ylmethyl)-1H-pyrazol-4-yl]-3-{[trans-4-phenylcyclohexyl]amino}propyl}-3H-[1,2,3]triazolo[4,5-b]pyridin-5-amine], the figures for the IC50 at myeloperoxidase [1] and on myeloperoxidase [2] were 0.101 to 0.999 µM and 0.001 to 0.1 µM, respectively.

As to `Nc1cc(C(CCN[C@H]2CC[C@H](c3ccccc3)CC2)c2cnn(Cc3cccc(OC(F)F)c3)c2)c2nn[nH]c2n1` (stereo partly drawn) [Example 25, 7-[1-(1-{[3-(Difluoromethoxy)phenyl]methyl}-1H-pyrazol-4-yl)-3-{[trans-4-phenylcyclohexyl]amino}propyl]-3H-[1,2,3]triazolo[4,5-b]pyridin-5-amine], the IC50 against myeloperoxidase [1] fell in the range of 0.101 to 0.999 µM; on myeloperoxidase [2], 0.001 to 0.1 µM.

With `Nc1cc(C(CCN[C@H]2CC[C@H](c3ccccc3)CC2)c2cnn(Cc3cc(F)cc(F)c3)c2)c2nn[nH]c2n1` (stereo partly drawn) [Example 26, 7-(1-{1-[(3,5-Difluorophenyl)methyl]-1H-pyrazol-4-yl}-3-{[trans-4-phenylcyclohexyl]amino}propyl)-3H-[1,2,3]triazolo[4,5-b]pyridin-5-amine], the IC50 against myeloperoxidase [1] fell in the range of 0.101 to 0.999 µM; on myeloperoxidase [2], 0.001 to 0.1 µM.

As to `Nc1cc(C(CCN[C@H]2CC[C@H](c3ccccc3)CC2)c2cnn(C3CCC3(F)F)c2)c2nn[nH]c2n1` (stereo partly drawn) [Example 28, 7-{1-[1-(2,2-Difluorocyclobutyl)-1H-pyrazol-4-yl]-3-{[trans-4-phenylcyclohexyl]amino}propyl}-3H-[1,2,3]triazolo[4,5-b]pyridin-5-amine], the results for the IC50 against myeloperoxidase [1] and against myeloperoxidase [2] were 0.101 to 0.999 µM and 0.001 to 0.1 µM, respectively.

On to `Nc1cc(C(CCN[C@H]2CC[C@H](c3ccccc3)CC2)c2cnn(C3CC(F)C3(F)F)c2)c2nn[nH]c2n1` (stereo partly drawn) [Example 29, 7-(3-{[trans-4-phenylcyclohexyl]amino}-1-[1-(2,2,3-trifluorocyclobutyl)-1H-pyrazol-4-yl]propyl)-3H-[1,2,3]triazolo[4,5-b]pyridin-5-amine], for which the IC50 lay within 0.101 to 0.999 µM against myeloperoxidase [1] and 0.001 to 0.1 µM on myeloperoxidase [2].

For the molecule `Nc1cc(C(CCN[C@H]2CC[C@H](c3ccccc3)CC2)c2cnn(CCC(F)(F)F)c2)c2nn[nH]c2n1` (stereo partly drawn) [Example 30, 7-(3-{[trans-4-Phenylcyclohexyl]amino}-1-[1-(3,3,3-trifluoropropyl)-1H-pyrazol-4-yl]propyl)-3H-[1,2,3]triazolo[4,5-b]pyridin-5-amine], the IC50 against myeloperoxidase [1] is 0.101 to 0.999 µM; against myeloperoxidase [2], 0.001 to 0.1 µM.

As to `Nc1cc(C(CCN[C@H]2CC[C@H](c3ccccc3)CC2)c2cnn(Cc3cccc(C(F)(F)F)c3)c2)c2nn[nH]c2n1` (stereo partly drawn) [Example 31, 7-(3-{[trans-4-Phenylcyclohexyl]amino}-1-(1-{[3-(trifluoromethyl)phenyl]methyl}-1H-pyrazol-4-yl)propyl)-3H-[1,2,3]triazolo[4,5-b]pyridin-5-amine], the IC50 was 0.101 to 0.999 µM against myeloperoxidase [1] and 0.001 to 0.1 µM at myeloperoxidase [2].

In the case of `Nc1cc(C(CCN[C@H]2CC[C@H](c3ccccc3)CC2)c2cnn(C3CC3)c2)c2nn[nH]c2n1` (stereo partly drawn) [Example 32, 7-[1-(1-Cyclopropyl-1H-pyrazol-4-yl)-3-{[trans-4-phenylcyclohexyl]amino}propyl]-3H-[1,2,3]triazolo[4,5-b]pyridin-5-amine], the IC50 is 1 to 10 µM against myeloperoxidase [1] and 0.101 to 0.999 µM on myeloperoxidase [2].

For `Nc1cc([C@H](CCN[C@H]2CC[C@H](c3ccccc3)CC2)c2cnn(Cc3cccc(OC(F)F)c3)c2)c2nn[nH]c2n1` [Example 33A, 7(S)-[1-(1-{[3-(Difluoromethoxy)phenyl]methyl}-1H-pyrazol-4-yl)-3-{[trans-4-phenylcyclohexyl]amino}propyl]-3H-[1,2,3]triazolo[4,5-b]pyridin-5-amine], the values for the IC50 against myeloperoxidase [1] and on myeloperoxidase [2] were 1 to 10 µM and 0.101 to 0.999 µM, respectively.

With `Nc1cc([C@@H](CCN[C@H]2CC[C@H](c3ccccc3)CC2)c2cnn(Cc3cccc(OC(F)F)c3)c2)c2nn[nH]c2n1` [Example 33B, 7(R)-[1-(1-{[3-(Difluoromethoxy)phenyl]methyl}-1H-pyrazol-4-yl)-3-{[trans-4-phenylcyclohexyl]amino}propyl]-3H-[1,2,3]triazolo[4,5-b]pyridin-5-amine], the IC50 against myeloperoxidase [1] and against myeloperoxidase [2] was 0.001 to 0.1 µM in each case.

For the molecule `Nc1cc(C(CCN[C@H]2CC[C@H](c3ccccc3)CC2)c2cccnc2)c2nn[nH]c2n1` (stereo partly drawn) [Example 34, 7-[1-(Pyridin-3-yl)-3-{[trans-4-phenylcyclohexyl]amino}propyl]-3H-[1,2,3]triazolo[4,5-b]pyridin-5-amine], the figures for the IC50 on myeloperoxidase [1] and on myeloperoxidase [2] were 0.101 to 0.999 µM and 0.001 to 0.1 µM, respectively.

Consider `Nc1cc(C(CCN[C@H]2CC[C@H](c3ccccc3)CC2)c2cc[nH]c(=O)c2)c2nn[nH]c2n1` (stereo partly drawn) [Example 35, 4-(1-{5-Amino-3H-[1,2,3]triazolo[4,5-b]pyridin-7-yl}-3-{[trans-4-phenylcyclohexyl]amino}propyl)-1,2-dihydropyridin-2-one], for which the IC50 against myeloperoxidase [1] was 0.101 to 0.999 µM; at myeloperoxidase [2] it was 0.001 to 0.1 µM.

For the molecule `Nc1cc(C(CCN[C@H]2CC[C@H](c3ccccc3)CC2)c2cc[nH]n2)c2nn[nH]c2n1` (stereo partly drawn) [Example 36, 7-[1-(1H-Pyrazol-3-yl)-3-{[trans-4-phenylcyclohexyl]amino}propyl]-3H-[1,2,3]triazolo[4,5-b]pyridin-5-amine], the results for the IC50 against myeloperoxidase [1] and at myeloperoxidase [2] were 1 to 10 µM and 0.101 to 0.999 µM, respectively.

As for `Nc1cc(C(CCN[C@@H]2C[C@@H](Cc3ccccc3)[C@H](O)C2)c2cnn(Cc3cccc(O)c3)c2)c2nn[nH]c2n1` (stereo partly drawn) [Example 42, 3-{[4-(1-{5-Amino-3H-[1,2,3]triazolo[4,5-b]pyridin-7-yl}-3-{[(1R,3R,4R)-3-benzyl-4-hydroxycyclopentyl]amino}propyl)-1H-pyrazol-1-yl]methyl}phenol], the IC50 against myeloperoxidase [1] and against myeloperoxidase [2] was 0.001 to 0.1 µM throughout.

Take `Nc1cc(C(CCN2C[C@H](Cc3ccccc3)[C@@H](O)C2)c2cnn(Cc3cccc(O)c3)c2)c2nn[nH]c2n1` (stereo partly shown) [Example 43]: the IC50 lay within 1 to 10 µM at myeloperoxidase [1] and 0.001 to 0.1 µM against myeloperoxidase [2].

Consider `Nc1cc(C(CCN[C@H]2CC[C@H](c3ccccc3)CC2)c2cncc(F)c2)c2nn[nH]c2n1` (stereo partly shown) [Example 44], for which the values for the IC50 on myeloperoxidase [1] and on myeloperoxidase [2] were 1 to 10 µM and 0.101 to 0.999 µM, respectively.

Turning to `Nc1cc(C(CCN[C@H]2CC[C@H](c3ccccc3)CC2)c2ccc(F)nc2)c2nn[nH]c2n1` (stereo partly shown) [Example 45], the half-inhibitory concentration (IC50) against myeloperoxidase [1] and against myeloperoxidase [2] was 0.101 to 0.999 µM each time.

With `Nc1cc(C(CCNCc2ccccc2)c2cnn(Cc3cccc(O)c3)c2)c2nn[nH]c2n1` (stereo not shown) [Example 46], the IC50 on myeloperoxidase [1] and against myeloperoxidase [2] was 0.101 to 0.999 µM each time.

On to `CCC(c1cnn(Cc2cccc(O)c2)c1)c1cc(N)nc2[nH]nnc12` (stereo not shown) [Example 47], for which the half-inhibitory concentration (IC50) on myeloperoxidase [1] and on myeloperoxidase [2] was 0.101 to 0.999 µM each time.

Consider `Nc1cc(C(CCNCc2cccc(CO)c2)c2cnn(Cc3cccc(O)c3)c2)c2nn[nH]c2n1` (stereo not shown) [Example 48], for which the results for the IC50 on myeloperoxidase [1] and on myeloperoxidase [2] were 1 to 10 µM and 0.101 to 0.999 µM, respectively.

With `Nc1cc(C(CCNCc2cccc(O)c2)c2cnn(Cc3cccc(O)c3)c2)c2nn[nH]c2n1` (stereo not shown) [Example 49], the IC50 was in the range of 1 to 10 µM at myeloperoxidase [1] and 0.101 to 0.999 µM on myeloperoxidase [2].

As for `Nc1cc(C(CCNC23CCC(c4ccccc4)(CC2)CC3)c2cnn(CCc3cccc(O)c3)c2)c2nn[nH]c2n1` (stereo not shown) [Example 50], the IC50 at myeloperoxidase [1] is 0.101 to 0.999 µM; against myeloperoxidase [2] it was 0.001 to 0.1 µM.

On to `Nc1cc(C(CCNC23CCC(c4ccccc4)(CC2)[C@H](O)C3)c2cnn(Cc3cccc(O)c3)c2)c2nn[nH]c2n1` (stereo partly shown) [Example 51], for which the IC50 on myeloperoxidase [1] and against myeloperoxidase [2] was 0.001 to 0.1 µM throughout.

In the case of `Nc1cc(C(CCNC23CCC(c4ccccc4)(CC2)[C@@H](O)C3)c2cnn(Cc3cccc(O)c3)c2)c2nn[nH]c2n1` (stereo partly shown) [Example 52], the 50% inhibitory concentration (IC50) against myeloperoxidase [1] and at myeloperoxidase [2] was 0.001 to 0.1 µM in each case.

The values are drawn from US11059818B2, “Triazolopyridine inhibitors of myeloperoxidase” (BRISTOL-MYERS SQUIBB COMPANY, priority 2016, dated 2021).
